From ChEMBL document CHEMBL4837230, “Thiophene-2-carboxamide derivatives of anthraquinone: A new potent antitumor chemotype” (Eur J Med Chem, 2021)

Experiments:
[1] = test system: K562; assay: Induction of cell cycle arrest in human K562 cells assessed as increase in accumulation at sub-G1 phase at 0.5 uM after 48 hrs by propidium iodide staining based flow cytometric analysis (reference value: 8.4%); assay type: functional
[2] = test system: U-937; assay: Cytotoxicity in human U-937 cells assessed as reduction in cell viability incubated for 72 hrs by MTT assay; assay type: functional, cell-based; settings: U-937, 72 h
[3] = test system: K562; assay: Induction of apoptosis in human K562 cells assessed as late apoptotic cells after 3 hrs by Annexin V-APC/PI double staining based flow cytometric analysis (reference value: 2.6%); assay type: functional
[4] = test system: K562; assay: Induction of apoptosis in human K562 cells assessed as necrotic cells after 24 hrs by Annexin V-APC/PI double staining based flow cytometric analysis (reference value: 6.3%); assay type: functional

`N[C@H]1CCN(C(=O)c2cc3c(O)c4c(c(O)c3s2)C(=O)c2ccccc2C4=O)C1` showed an Activity [1] of 33.2%, an IC50 [2] of 200 nM and an Activity [3] of 13.2%. For the same compound, the Activity [4] was 48.8%.
